What all share (assay): NCI anticancer screen, dose series, 48 h
Test [1] deals with OVCAR-4 ovarian.
In test [2] the test system is HCC-2998 colon.
In test [3] the test system is MCF7 breast.
Test [4] has as its system OVCAR-3 ovarian.
Test [5] has as its system LOX IMVI melanoma.
For test [6], the system named is HOP-62 NSCLC.
Test [7] deals with T-47D breast.
Test [8] has as its system M14 melanoma.
Test [9] deals with SN12C renal.
In test [10] the test system is NCI-H460 lung.
The subject of test [11] is DU-145 prostate.
Test [12] has as its system SK-MEL-2 melanoma.

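Tested at 5 concentrations; 48 h exposure; 96-well plates; endpoints linearly interpolated, else capped at highest concentration. Definition used: TGI = concentration required for complete inhibition of growth.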 Bounds are passed on as bounds.

For the molecule `COc1cc(N=NN(C)C)c(C(C)c2c3cc(OC)c(OC)cc3cc[n+]2C)cc1OC` (configuration not stated), the TGI in test [1], in test [2], in test [3], in test [4], in [5] and in [6] was > 100 µM throughout. For the same molecule, the TGI in test [7] was 76.2 µM; in test [8] it was > 100 µM; in test [9] it was > 100 µM; in test [10] it was > 100 µM; in [11] it was > 100 µM; in test [12], 87.5 µM.

As for `CN1C(c2ccccc2)=CC(=O)C(O)=C(c2ccccc2)S1(=O)=O`, the TGI in test [1], in [2], in test [3], in [4], in test [5] and in test [6] was > 100 µM throughout. The TGI in test [7], in test [8], in [9], in test [10], in test [11] and in test [12] was > 100 µM throughout.

For the molecule `NC1C/C(=N\O)c2c(I)sc(I)c21` (configuration not stated), the TGI was > 64.9 µM in test [1]; 38.5 µM in test [2]; 36 µM in test [3]; 30.2 µM in test [4]; 15.6 µM in test [5]; 34.4 µM in test [6]. The TGI is 52.3 µM in [7]; 30.9 µM in test [8]; > 56.6 µM in test [9]; 52 µM in test [10]; 31.4 µM in [11]; 35.2 µM in [12].

Turning to `NC1CC(=O)c2csc(Br)c21` (configuration not stated), the TGI in [1] was 30.5 µM; in [2] it was 34.6 µM; in test [3], 68 µM; in [4], 30.7 µM; in test [5], 29 µM; in test [6], > 72 µM. Also, the TGI in test [7] was > 59.3 µM; in [8], > 53.6 µM; in test [9], > 44.3 µM; in [10] it was > 67.4 µM; in [11] it was > 52.1 µM; in test [12], 31.3 µM.

For the molecule `O=C(Cn1nc(Br)c(Br)c1Br)c1ccccc1`, the TGI is > 100 µM in [1]; > 100 µM in test [2]; 83.6 µM in test [3]; > 100 µM in test [4]; 32.2 µM in test [5]; > 100 µM in test [6]. The TGI is 89.1 µM in test [7]; 92.1 µM in test [8]; > 100 µM in test [9]; 63.9 µM in test [10]; > 100 µM in test [11]; 56.7 µM in [12].

With `O=C(Oc1ccccc1)c1cc2cc(CCl)ccc2oc1=O`, the TGI in test [1] was 68.9 µM; in [2], 47.1 µM; in [3] it was > 100 µM; in test [4], > 100 µM; in test [5], > 100 µM; in test [6] it was > 100 µM. In addition, the TGI in [7] is 38.7 µM; in test [8], 67.1 µM; in [9], 67.4 µM; in [10], 51.6 µM; in test [11] it was 98.7 µM; in test [12], 15.3 µM.

On to `NNC(=O)CNC(=O)CSc1nnc(COc2ccc(Cl)cc2)n1-c1ccccc1`, for which the TGI in test [1], in [2], in test [3], in [4], in test [5] and in test [6] was > 100 µM throughout. The TGI in test [7], in [8], in test [9], in test [10], in [11] and in test [12] was > 100 µM in each case.

For `CCCN1C(=O)CCC2=C1CCc1c2ccc(Cl)c1Cl`, the TGI was > 100 µM in [1]; 49.8 µM in test [2]; > 100 µM in [3]; 86.7 µM in [4]; > 100 µM in test [5]; > 100 µM in [6]. Also, the TGI was > 100 µM in [7]; > 100 µM in [8]; > 100 µM in [9]; > 100 µM in test [10]; > 100 µM in test [11]; 41.6 µM in test [12].

As to `O=C(CN1CCN(C(=O)OCc2ccccc2)CCN(CC(=O)N2CCCCC2)CCN(C(=O)OCc2ccccc2)CC1)N1CCCCC1`, the TGI amounted to 25.4 µM in test [1]; 25.2 µM in test [2]; 44.6 µM in [3]; 22.8 µM in test [4]; 28.1 µM in [5]; 42.2 µM in [6]. For the same molecule, the TGI in [7] is 38.8 µM; in test [8], 25 µM; in test [9], 26.8 µM; in test [10] it was 26.7 µM; in [11], > 54.8 µM; in [12], 40.2 µM.

Take `O=P(O)(O)C(O)/C=C/c1ccccc1` (configuration not stated): the TGI in test [1], in test [2], in test [3], in test [4], in [5] and in [6] was > 100 µM in each case. The TGI in [7], in test [8], in [9], in test [10], in test [11] and in test [12] was > 100 µM in each case.

As to `Cc1cc(N(CCC#N)CCC#N)ccc1/C(N=Nc1cccc([N+](=O)[O-])c1)=N/NC(=O)c1cc(Cl)ccc1O`, the TGI in [1] was 92.2 µM; in [2], 93.4 µM; in [3], > 100 µM; in test [4] it was 59.5 µM; in test [5] it was 49.3 µM; in test [6], > 100 µM. The TGI in [7] is 71 µM; in test [8], > 100 µM; in test [9] it was > 100 µM; in test [10], 88.6 µM; in [11] it was > 100 µM; in [12], 63.3 µM.

For the origin of these results see PubChem BioAssay (NCI).
